Laboratory results taken from patent publication US20190117634A1, “Treatment of Vulvodynia” (Gruenenthal GmbH, priority 2017, published 2019).

Experiment: in vitro permeation/penetration in porcine vaginal tissue (Franz diffusion cell)
Type: in vitro ADME
Description: The permeation/penetration of the formulation according to Example 1 in porcine vaginal tissue was assessed by in vitro experiments.
The in vitro experiments involved the use of a Franz diffusion cell designed to mimic the physiological and anatomical conditions of porcine vaginal tissue in situ. Porcine vaginal tissue skin was positioned between the two halves of a Franz diffusion cell with the vaginal epithelium facing the donor compartment allowing for drug product application. The other side of the porcine vaginal tissue skin faced a receiver fluid comprising 2% w/v Tween 80 in 20% v/v PEG 400 in water.
Prior to dosing of the formulation on the tissue, the integrity of the tissue was assessed as follows: • (i) Porcine vaginal tissue was mounted between the donor and receiver compartments and the cells were sealed together using Parafilm®. • (ii) The donor and receiver chambers were filled with PBS solution and a small magnetic follower was placed in the receiver compartment. • (iii) Cells were equilibrated in a water bath, ensuring a membrane temperature of 32° C. for 30 min. • (iv) The electrodes of the ISO-TECH LCR821 Meter were placed in the receiver chamber through the sampling arm and the donor chamber and the LCR was set at 100 Hz and set to ‘R’ for resistance. • (v) The resistance of the tissue in each Franz cell was measured using a ISO-TECH LCR821 Meter (SOP 3174). Cells with a resistance below the acceptable limits were discarded and remounted.
Following the tissue integrity testing, the PBS solutions were removed from each compartment and the receiver compartments of cells passing the resistance criteria were filled with receiver fluid. Each cell was then equilibrated to ensure a surface temperature of 32° C. (external skin surface temperature) for at least 30 min prior to dosing. An additional Franz cell was also mounted but not dosed (to act as a blank) to assess interference with sample quantification.
A positive displacement pipette was used to apply 6-8 mg of the formulation of table 1 to the tissue surface. Prior to application the weight of each test formulation was verified by weighing the amount dispensed by the positive displacement pipette into an empty vial (n=6).
Receiver fluid (200 μL) was removed at the following time points t=0, 1, 2, 4, 6 and 24 h and transferred to a HPLC vial for analysis. Fresh pre-warmed (37° C.) receiver fluid was used to replace the receiver fluid removed at each time point. Following the 24 h time point, remaining receiver fluid was removed from the Franz cells and the drug was recovered. […]

[1] = formulation of Example 1, after 24 h, Franz cell

CN(C)[C@]1(c2cccc(F)c2)CC[C@]2(CC1)c1[nH]c3ccccc3c1CCN2C(=O)/C=C/c1ccccc1 [pharmacologically active compound, cis-(E)-4-(3-fluorophenyl)-2′,3′,4′,9′-tetrahydro-N,N-dimethyl-2′-(1-oxo-3-phenyl-2-propenyl)-spiro[cyclohexane-1,1′[1H]-pyrido[3,4-b]indol]-4-amine]
Mean recovery of the pharmacologically active compound from the epithelium of porcine vaginal tissue (formulation of Example 1 (2.60 wt.-% compound), 6-8 mg applied, after 24 h, Franz cell, 32° C.): 9.72 μg
Mean recovery of the pharmacologically active compound from the epithelium of porcine vaginal tissue [1]: 810.21 μg/mL
Total concentration presented to vaginal epithelium [1]: 1596.04 µM
permeation into the epithelium of porcine vaginal tissue (in words) (formulation of Example 1, in vitro, 24 h): permeates into the epithelium of porcine vaginal tissue
